Assay results: paper PMC9698323, “Interaction of Destruxin A with Three Silkworm Proteins: BmCRT, BmDPP3, and BmPDIA5” (Molecules, 2022)
Square brackets hold non-standard residues; d marks the D form. Peptide text beside a SMILES is read from it. dLac(3-vinyl) = C=CC[C@@H](O)C(=O)O; NMeV = CN[C@H](C(=O)O)C(C)C; NMeA = CN[C@@H](C)C(=O)O; βAla = NCCC(=O)O

Assays:
[1] = biological target: T1, BmCRT (calreticulin) (Bombyx mori, UniProt Q7Z1E6); test: SPR (Biacore 8K), multi-cycle kinetics; assay type: binding
T1 construct: gene crt
T1 sequence (Q7Z1E6 20-398): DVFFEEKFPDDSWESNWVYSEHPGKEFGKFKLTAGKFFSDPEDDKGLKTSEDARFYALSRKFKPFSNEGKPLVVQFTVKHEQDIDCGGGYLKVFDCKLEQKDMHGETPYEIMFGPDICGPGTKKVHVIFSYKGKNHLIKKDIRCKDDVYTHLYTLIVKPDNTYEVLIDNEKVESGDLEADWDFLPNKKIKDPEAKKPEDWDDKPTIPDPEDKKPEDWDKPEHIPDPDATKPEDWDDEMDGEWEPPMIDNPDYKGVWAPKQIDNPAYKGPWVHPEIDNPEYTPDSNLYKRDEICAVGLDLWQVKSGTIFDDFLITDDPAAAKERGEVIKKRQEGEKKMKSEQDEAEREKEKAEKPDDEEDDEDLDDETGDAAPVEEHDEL

[2] = biological target: BmPDIA5 (protein disulfide isomerase A5); test: SPR (Biacore 8K), multi-cycle kinetics; assay type: binding, Bombyx mori; details: 1 × PBSP, 5% DMSO; DA 15.6-250 µmol/L

Compound `C=CC[C@H]1OC(=O)CCNC(=O)[C@H](C)N(C)C(=O)[C@H](C(C)C)N(C)C(=O)[C@H]([C@@H](C)CC)NC(=O)[C@@H]2CCCN2C1=O` [DA, Destruxin A] (cyclo([dLac(3-vinyl)]PI[NMeV][NMeA][βAla])) has a Kd [1] of 198 µM and a Kd [2] of 92.6 µM.
